Data on two molecules can be found in ChEMBL document CHEMBL4507299, “Data for DCP probe PF-04554878” (2021).

Each structure is given as a SMILES string.

The subject of test [1] is Ribosomal protein S6 kinase beta-1 (Homo sapiens), P23443 [UNDEFINED MUTATION]. As to the kind of experiment: S6K T389D D3E Invitrogen kinase activity assay. To be noted: Compound concentration 1.0 uM.
Test [2] deals with T1, Serine/threonine-protein kinase 3 (Homo sapiens) (UniProt Q13188).
T1 sequence (whole entry): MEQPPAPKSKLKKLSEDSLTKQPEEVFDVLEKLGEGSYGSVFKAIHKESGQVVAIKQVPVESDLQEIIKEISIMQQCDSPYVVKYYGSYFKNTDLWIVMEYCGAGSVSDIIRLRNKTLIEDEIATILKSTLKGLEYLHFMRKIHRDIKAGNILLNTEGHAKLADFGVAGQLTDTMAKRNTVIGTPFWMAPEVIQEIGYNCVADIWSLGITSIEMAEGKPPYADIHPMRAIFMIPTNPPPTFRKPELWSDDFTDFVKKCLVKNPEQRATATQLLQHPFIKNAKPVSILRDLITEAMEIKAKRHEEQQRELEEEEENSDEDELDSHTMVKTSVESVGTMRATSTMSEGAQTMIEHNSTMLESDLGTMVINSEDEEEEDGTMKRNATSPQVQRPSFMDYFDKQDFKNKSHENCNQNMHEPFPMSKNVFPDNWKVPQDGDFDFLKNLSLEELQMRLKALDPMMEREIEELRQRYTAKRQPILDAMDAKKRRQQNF
As to the kind of experiment: MST2 Invitrogen kinase activity assay. To be noted: Compound concentration 1.0 uM.

In test [3] the target is Serine/threonine-protein kinase PAK 4 (Homo sapiens) (UniProt O96013). As to the kind of experiment: PAK4 Invitrogen kinase activity assay. The conditions noted are these: Compound concentration 1.0 uM.
Test [4] has as its target MAP kinase-activated protein kinase 2 (Homo sapiens) (UniProt P49137). As to the kind of experiment: MAPKAPK2 Invitrogen kinase activity assay. To be noted: Compound concentration 1.0 uM.
The target of test [5] is 5-hydroxytryptamine receptor 1E (Homo sapiens) (UniProt P28566). The conditions noted are these: Compound concentration 10.0 uM.
Test [6] has as its target Cyclin-dependent kinase 2/cyclin A (Homo sapiens, UniProt P24941). As to the kind of experiment: (§1) CDK2/cyclinA Invitrogen kinase activity assay. The format is protein-complex assay.
Test [7] has as its target Cyclin-dependent kinase 2/cyclin A (Homo sapiens) (UniProt P24941+P20248+P78396). The description is as §1. Format: protein-complex assay. The conditions noted are these: Compound concentration 1.0 uM.
For test [8], the target named is Vascular endothelial growth factor receptor 2 (Homo sapiens) (UniProt P35968). As to the kind of experiment: VEGFR2/Flk1 Invitrogen kinase activity assay. The conditions noted are these: Compound concentration 1.0 uM.
Test [9] concerns the target Vascular endothelial growth factor receptor 1 (Homo sapiens, UniProt P17948). The experiment in a line: Cerep profiling assay (FLT1). On the set-up: compound concentration 10 uM.
The target of test [10] is Insulin receptor (Homo sapiens) (UniProt P06213). As to the kind of experiment: INSR Invitrogen kinase activity assay. To be noted: Compound concentration 1.0 uM.
Another test deals with Adenosine receptor A3 (Homo sapiens, UniProt P0DMS8). The experiment in a line: Cerep profiling assay (ADORA3). On the set-up: compound concentration 10 uM.
The target of test [11] is Tyrosine-protein kinase Lck (Homo sapiens) (UniProt P06239). The experiment in a line: LCK Invitrogen kinase activity assay. To be noted: Compound concentration 1.0 uM.
Test [12] concerns the target High affinity nerve growth factor receptor (Homo sapiens) (UniProt P04629). To be noted: Compound concentration 1.0 uM.
Test [13] has as its target 5-hydroxytryptamine receptor 1A (Homo sapiens) (UniProt P08908). The conditions noted are these: Compound concentration 10.0 uM.
Test [14] addresses Dual specificity protein kinase CLK1 (Homo sapiens, UniProt P49759). The experiment in a line: CLK1 Invitrogen kinase activity assay.
In test [15] the target is Epidermal growth factor receptor (Homo sapiens) (UniProt P00533). The experiment in a line: EGFR Invitrogen kinase activity assay. The conditions noted are these: Compound concentration 1.0 uM.
For test [16], the target named is Serine/threonine-protein kinase pim-2 (Homo sapiens) (UniProt Q9P1W9). As to the kind of experiment: PIM2 Invitrogen kinase activity assay. The conditions noted are these: Compound concentration 1.0 uM.
The next test has as its target Adenosine receptor A2a (Homo sapiens, UniProt P29274). The experiment in a line: Cerep profiling assay (ADORA2A). On the set-up: compound concentration 10 uM.
Test [17] has as its target Tyrosine-protein kinase ABL1 (Homo sapiens, UniProt P00519). As to the kind of experiment: ABL Invitrogen kinase activity assay.
Test [18] addresses T2, Aurora kinase A (Homo sapiens) (UniProt O14965).
T2 sequence (whole entry): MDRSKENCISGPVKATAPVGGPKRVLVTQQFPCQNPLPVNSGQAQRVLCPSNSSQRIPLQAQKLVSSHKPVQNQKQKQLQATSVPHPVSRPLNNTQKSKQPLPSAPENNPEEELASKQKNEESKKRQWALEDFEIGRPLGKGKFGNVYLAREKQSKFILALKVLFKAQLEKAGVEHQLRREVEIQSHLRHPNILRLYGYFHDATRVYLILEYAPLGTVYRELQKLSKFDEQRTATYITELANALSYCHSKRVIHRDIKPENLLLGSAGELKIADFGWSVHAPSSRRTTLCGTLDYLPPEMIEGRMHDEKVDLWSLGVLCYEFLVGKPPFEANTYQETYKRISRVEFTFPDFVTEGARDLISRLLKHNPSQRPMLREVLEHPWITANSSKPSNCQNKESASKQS
The experiment in a line: Aurora-A Invitrogen kinase activity assay. The conditions noted are these: Compound concentration 1.0 uM.

In test [19] the target is Mitogen-activated protein kinase 1 (Homo sapiens) (UniProt P28482). The experiment in a line: MAPK1/ERK2 Invitrogen kinase activity assay. The conditions noted are these: Compound concentration 1.0 uM.
Test [20] deals with Hepatocyte growth factor receptor (Homo sapiens) (UniProt P08581). The experiment in a line: MET Invitrogen kinase activity assay. To be noted: Compound concentration 1.0 uM.
Test [21] deals with Mitogen-activated protein kinase kinase kinase kinase 4 (Homo sapiens) (UniProt O95819). As to the kind of experiment: MAP4K4 Invitrogen kinase activity assay. To be noted: Compound concentration 1.0 uM.
Test [22] has as its target T3, Inhibitor of nuclear factor kappa-B kinase subunit epsilon (Homo sapiens) (UniProt Q14164).
T3 sequence (whole entry): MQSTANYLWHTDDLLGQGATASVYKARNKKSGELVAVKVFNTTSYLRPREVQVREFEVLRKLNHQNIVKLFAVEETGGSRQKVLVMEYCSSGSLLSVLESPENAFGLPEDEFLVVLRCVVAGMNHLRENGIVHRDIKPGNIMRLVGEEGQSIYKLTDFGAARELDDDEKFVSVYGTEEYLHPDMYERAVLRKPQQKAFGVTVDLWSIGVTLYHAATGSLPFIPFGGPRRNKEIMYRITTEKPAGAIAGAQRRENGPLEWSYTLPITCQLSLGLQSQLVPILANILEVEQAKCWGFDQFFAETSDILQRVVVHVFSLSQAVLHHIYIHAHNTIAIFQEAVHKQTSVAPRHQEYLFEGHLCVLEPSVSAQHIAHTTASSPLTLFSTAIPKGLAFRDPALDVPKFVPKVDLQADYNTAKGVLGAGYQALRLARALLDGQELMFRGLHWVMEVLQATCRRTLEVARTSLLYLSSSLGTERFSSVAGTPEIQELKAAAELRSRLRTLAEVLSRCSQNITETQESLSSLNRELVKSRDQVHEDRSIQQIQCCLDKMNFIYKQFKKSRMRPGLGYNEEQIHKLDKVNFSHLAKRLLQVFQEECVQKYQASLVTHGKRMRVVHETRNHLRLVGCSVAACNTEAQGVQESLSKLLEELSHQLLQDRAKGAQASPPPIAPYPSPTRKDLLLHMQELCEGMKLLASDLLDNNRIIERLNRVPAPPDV
The experiment in a line: IKKi Invitrogen kinase activity assay. To be noted: Compound concentration 1.0 uM.

Test [23] can be described thus: GPCRScan assay: inhibition of GABA/PBR. On the set-up: species or system Rattus norvegicus; radioligand conc. used [nm] 0.3 – 2.0, parental cells brain tissue.
For the next test, the target named is D(1A) dopamine receptor (Homo sapiens, UniProt P21728). The conditions noted are these: Compound concentration 10.0 uM.
D(1A) dopamine receptor, sequence (P21728 whole entry): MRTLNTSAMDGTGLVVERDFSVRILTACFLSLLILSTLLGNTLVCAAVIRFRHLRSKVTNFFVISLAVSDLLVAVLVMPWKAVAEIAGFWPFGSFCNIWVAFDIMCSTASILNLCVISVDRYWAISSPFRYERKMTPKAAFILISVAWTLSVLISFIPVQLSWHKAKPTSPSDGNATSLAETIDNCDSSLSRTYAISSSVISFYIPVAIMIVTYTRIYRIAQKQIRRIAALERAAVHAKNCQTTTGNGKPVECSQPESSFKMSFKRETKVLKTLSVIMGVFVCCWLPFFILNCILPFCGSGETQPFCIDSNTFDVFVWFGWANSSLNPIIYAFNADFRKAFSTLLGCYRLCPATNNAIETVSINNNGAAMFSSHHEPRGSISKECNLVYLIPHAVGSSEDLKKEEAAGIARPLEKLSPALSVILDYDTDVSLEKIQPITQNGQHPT

Tyrosine-protein kinase ABL1, sequence (P00519 whole entry): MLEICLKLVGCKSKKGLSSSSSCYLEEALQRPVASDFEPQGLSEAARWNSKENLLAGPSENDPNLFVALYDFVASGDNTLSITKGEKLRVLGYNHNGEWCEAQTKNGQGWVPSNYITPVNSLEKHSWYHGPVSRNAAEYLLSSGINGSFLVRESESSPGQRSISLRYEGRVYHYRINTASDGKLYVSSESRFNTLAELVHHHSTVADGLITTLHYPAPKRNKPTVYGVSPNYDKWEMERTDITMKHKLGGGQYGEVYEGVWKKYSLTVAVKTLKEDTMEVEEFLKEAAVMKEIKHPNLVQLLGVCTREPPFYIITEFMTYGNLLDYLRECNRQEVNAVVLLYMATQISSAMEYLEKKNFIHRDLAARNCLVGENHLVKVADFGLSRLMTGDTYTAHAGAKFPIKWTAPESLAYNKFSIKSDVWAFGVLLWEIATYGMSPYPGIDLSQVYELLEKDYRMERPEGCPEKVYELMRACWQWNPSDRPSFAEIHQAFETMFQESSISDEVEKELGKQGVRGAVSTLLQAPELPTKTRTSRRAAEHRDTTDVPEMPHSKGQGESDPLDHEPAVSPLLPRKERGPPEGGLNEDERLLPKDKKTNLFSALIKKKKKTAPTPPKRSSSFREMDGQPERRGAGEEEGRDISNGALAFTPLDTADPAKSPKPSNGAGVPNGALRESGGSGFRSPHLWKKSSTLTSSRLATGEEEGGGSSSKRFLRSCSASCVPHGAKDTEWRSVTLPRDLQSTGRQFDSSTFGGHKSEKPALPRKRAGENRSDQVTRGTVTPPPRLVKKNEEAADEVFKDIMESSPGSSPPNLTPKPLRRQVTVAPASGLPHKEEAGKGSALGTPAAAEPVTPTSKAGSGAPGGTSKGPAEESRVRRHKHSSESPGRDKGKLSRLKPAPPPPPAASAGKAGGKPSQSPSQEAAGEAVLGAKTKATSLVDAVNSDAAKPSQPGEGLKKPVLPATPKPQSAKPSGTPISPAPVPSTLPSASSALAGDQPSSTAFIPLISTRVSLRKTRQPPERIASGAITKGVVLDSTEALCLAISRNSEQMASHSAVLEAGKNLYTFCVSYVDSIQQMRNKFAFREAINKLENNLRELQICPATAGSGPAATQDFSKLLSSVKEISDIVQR
Serine/threonine-protein kinase PAK 4 (Homo sapiens), sequence (O96013 whole entry, looked up): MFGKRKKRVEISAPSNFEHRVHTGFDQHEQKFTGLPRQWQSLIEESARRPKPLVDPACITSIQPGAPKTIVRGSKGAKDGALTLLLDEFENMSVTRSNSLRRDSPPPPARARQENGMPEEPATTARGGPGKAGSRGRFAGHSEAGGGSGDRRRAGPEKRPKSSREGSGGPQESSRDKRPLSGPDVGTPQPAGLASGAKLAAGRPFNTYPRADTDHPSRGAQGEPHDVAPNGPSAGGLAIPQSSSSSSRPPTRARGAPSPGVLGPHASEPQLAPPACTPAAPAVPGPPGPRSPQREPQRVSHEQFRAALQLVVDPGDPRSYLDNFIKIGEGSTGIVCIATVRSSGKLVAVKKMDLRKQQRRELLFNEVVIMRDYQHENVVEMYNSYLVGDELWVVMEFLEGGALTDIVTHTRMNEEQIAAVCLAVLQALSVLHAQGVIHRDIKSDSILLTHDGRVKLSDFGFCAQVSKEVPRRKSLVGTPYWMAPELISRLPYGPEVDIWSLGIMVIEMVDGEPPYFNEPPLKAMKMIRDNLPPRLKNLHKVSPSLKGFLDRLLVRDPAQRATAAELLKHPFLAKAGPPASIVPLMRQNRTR
5-hydroxytryptamine receptor 1A (Homo sapiens), sequence (P08908 whole entry): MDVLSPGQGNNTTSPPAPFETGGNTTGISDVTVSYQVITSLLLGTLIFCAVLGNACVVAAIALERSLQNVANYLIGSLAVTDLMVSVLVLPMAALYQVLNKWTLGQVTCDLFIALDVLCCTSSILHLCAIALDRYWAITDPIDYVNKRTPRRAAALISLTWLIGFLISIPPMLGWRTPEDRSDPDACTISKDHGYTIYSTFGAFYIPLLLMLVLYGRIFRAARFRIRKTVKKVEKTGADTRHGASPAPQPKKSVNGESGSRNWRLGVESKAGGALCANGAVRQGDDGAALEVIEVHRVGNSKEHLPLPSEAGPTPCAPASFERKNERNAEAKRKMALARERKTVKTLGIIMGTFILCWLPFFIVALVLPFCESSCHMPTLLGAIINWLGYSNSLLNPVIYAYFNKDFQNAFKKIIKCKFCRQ
Ribosomal protein S6 kinase beta-1 (Homo sapiens), P23443 [UNDEFINED MUTATION], sequence (P23443 whole entry, looked up, stated change not applied): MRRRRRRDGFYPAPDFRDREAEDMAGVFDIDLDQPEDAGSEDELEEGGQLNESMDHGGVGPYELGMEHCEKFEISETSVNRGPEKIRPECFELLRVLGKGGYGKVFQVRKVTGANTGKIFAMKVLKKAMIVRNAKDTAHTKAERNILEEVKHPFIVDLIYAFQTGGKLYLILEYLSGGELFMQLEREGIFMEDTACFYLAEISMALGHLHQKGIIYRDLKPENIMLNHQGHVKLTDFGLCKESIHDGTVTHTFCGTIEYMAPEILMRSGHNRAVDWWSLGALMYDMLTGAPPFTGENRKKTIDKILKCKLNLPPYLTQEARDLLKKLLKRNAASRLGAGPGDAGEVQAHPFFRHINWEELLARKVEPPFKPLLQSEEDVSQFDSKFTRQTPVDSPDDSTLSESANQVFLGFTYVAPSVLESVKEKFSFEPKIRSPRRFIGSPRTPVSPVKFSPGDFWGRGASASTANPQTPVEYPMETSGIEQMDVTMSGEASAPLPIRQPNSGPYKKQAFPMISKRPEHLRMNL
Adenosine receptor A3, sequence (P0DMS8 whole entry): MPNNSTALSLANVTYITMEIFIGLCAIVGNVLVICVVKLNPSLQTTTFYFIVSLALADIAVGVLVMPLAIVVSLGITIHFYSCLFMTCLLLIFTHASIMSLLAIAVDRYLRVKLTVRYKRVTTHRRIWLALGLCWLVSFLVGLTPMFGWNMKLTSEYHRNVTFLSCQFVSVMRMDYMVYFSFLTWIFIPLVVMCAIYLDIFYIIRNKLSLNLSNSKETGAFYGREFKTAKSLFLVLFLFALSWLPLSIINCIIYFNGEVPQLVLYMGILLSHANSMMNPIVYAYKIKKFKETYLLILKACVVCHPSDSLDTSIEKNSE
Hepatocyte growth factor receptor (Homo sapiens), sequence (P08581 whole entry): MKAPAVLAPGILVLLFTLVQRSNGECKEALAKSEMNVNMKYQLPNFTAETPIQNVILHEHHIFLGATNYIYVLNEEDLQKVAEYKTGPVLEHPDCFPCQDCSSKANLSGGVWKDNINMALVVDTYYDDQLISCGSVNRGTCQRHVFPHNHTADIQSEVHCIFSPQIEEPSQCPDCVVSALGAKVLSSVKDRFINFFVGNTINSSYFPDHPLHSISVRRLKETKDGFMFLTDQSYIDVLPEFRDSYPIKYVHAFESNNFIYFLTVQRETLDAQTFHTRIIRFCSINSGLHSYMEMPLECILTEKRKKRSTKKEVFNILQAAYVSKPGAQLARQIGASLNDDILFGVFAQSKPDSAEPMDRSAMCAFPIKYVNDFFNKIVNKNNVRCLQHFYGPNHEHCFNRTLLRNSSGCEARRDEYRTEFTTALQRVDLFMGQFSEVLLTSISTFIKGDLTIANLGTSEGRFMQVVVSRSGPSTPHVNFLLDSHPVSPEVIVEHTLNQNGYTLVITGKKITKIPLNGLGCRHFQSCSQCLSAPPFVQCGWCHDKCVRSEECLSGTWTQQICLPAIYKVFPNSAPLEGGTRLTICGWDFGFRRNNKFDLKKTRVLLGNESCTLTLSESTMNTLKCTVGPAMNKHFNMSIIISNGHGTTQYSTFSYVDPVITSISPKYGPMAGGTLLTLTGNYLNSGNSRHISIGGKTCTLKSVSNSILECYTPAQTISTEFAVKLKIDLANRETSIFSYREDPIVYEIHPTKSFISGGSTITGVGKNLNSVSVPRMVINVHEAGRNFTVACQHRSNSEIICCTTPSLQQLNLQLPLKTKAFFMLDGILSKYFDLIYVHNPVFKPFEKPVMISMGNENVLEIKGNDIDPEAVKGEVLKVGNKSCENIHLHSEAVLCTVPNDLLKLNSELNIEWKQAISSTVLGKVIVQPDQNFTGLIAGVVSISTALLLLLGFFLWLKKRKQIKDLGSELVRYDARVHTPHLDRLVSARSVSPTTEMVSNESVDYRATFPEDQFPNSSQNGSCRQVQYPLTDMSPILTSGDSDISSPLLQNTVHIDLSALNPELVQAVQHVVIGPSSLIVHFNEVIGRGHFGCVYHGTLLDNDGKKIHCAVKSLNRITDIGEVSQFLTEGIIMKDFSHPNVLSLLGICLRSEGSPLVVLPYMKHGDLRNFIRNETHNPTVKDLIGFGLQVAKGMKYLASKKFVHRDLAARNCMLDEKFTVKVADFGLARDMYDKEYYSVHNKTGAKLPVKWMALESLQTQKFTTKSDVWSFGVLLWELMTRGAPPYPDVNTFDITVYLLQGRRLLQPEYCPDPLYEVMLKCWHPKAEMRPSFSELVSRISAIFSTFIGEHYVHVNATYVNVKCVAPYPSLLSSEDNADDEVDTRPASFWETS

Consider `CNC(=O)c1ccc(Nc2ncc(C(F)(F)F)c(NCc3nccnc3N(C)S(C)(=O)=O)n2)cc1` [DEFACTINIB], for which the inhibition in test [1] was 18%; in [2], 60%; in [3], 69%; in test [4], 2%; in test [5] it was 18.2%; in [7] it was 72%. The inhibition was 68% in test [8]; 50% in test [10]; 39% in [11]; 97% in [12]; -9.76% in test [13]; 99% in test [14] (Compound concentration 1.0 uM). Besides, the inhibition in test [15] is 13%; in test [16] it was 0%; in test [17] (Compound concentration 1.0 uM), 34%; in [18], 87%; in test [19] it was 35%; in test [20], 54%. Further, the inhibition was 28% in [21] and 8% in test [22]. Besides, the IC50 in test [6] was 344 nM; in [9], 2500 nM (not active); in test [14], 250 nM; in [17] it was 1640 nM. The inhibition constant (Ki) at Adenosine receptor A3 was 27 nM; at Adenosine receptor A2a, 370 nM (not active).
On to `CN(c1ccnc(CNc2nc(Nc3ccc4c(c3)CC(=O)N4)ncc2C(F)(F)F)n1)S(C)(=O)=O` [PF-00911705], for which, in [23], the Ki turned out to be 1480 nM and the pKi stood at 5.83. In addition, the inhibition on D(1A) dopamine receptor was 0.76%.
